The test system of assay [1] is SH-SY5Y. The experiment in a line: Neuroprotective activity against NMDA-induced cell damage in human SH-SY5Y cells assessed as cell viability at 0.1 uM preincubated for 6 hrs followed by NMDA addition and measured after 30 mins by MTT assay (reference value: 58.7 +/- 2.3%). Type of assay: functional. The settings on record: read-out: Activity. For orientation: Tetrazolium dyes change colour on reduction, which living cells bring about.

For assay [2], the system named is SH-SY5Y. The experiment in a line: Neuroprotective activity against NMDA-induced cell damage in human SH-SY5Y cells assessed as cell viability at 1 uM preincubated for 6 hrs followed by NMDA addition and measured after 30 mins by MTT assay (reference value: 58.7 +/- 2.3%). Type of assay: functional. The settings on record: read-out: Activity.
The test system of assay [3] is SH-SY5Y. The experiment in a line: Neuroprotective activity against NMDA-induced cell damage in human SH-SY5Y cells assessed as cell viability at 10 uM preincubated for 6 hrs followed by NMDA addition and measured after 30 mins by MTT assay (reference value: 58.7 +/- 2.3%). As to conditions: read-out: Activity. In kind it is functional.
In assay [4] the test system is SH-SY5Y. The experiment in a line: Neuroprotective activity against NMDA-induced cell damage in human SH-SY5Y cells assessed as cell viability at 100 uM preincubated for 6 hrs followed by NMDA addition and measured after 30 mins by MTT assay (reference value: 58.7 +/- 2.3%).

SMILES strings stand for the structures.

As to `O=C(Nc1ccccc1)[C@@H]1CCC2=Nc3ccccc3CN21`, in the assay with SH-SY5Y [1], the viability at 0.1 µM amounted to 68.7%. The viability at 1 µM with SH-SY5Y [2] was 71.4%. In the assay on SH-SY5Y [3], the viability at 10 µM amounted to 60.4%. In the assay on SH-SY5Y [4], the Activity is 54.6%.

On to `O=C(NCCc1ccc(O)cc1)[C@H]1CCC2=Nc3ccc(Br)cc3CN21`, for which, in the assay with SH-SY5Y [1], the viability at 0.1 µM is 67.8%. Moreover, the viability at 1 µM in the assay on SH-SY5Y [2] worked out at 74.5%. Also, the viability at 10 µM with SH-SY5Y [3] was 78.2%. The Activity in the assay with SH-SY5Y [4] was 81.5%.

For the compound `COc1ccc(CNC(=O)[C@@H]2CCC3=Nc4ccc(Br)cc4CN32)cc1`, the viability at 0.1 µM in the assay with SH-SY5Y [1] worked out at 60.4%. Besides, the viability at 1 µM in the assay on SH-SY5Y [2] came to 68.8%. For the same compound, the viability at 10 µM in the assay with SH-SY5Y [3] was determined as 74.3%. Further, the Activity in the assay on SH-SY5Y [4] came to 55.3%.

Consider `O=C(N[C@H](CO)Cc1ccccc1)[C@@H]1CCC2=Nc3ccccc3CN21`, for which the viability at 0.1 µM with SH-SY5Y [1] turned out to be 67.1%. Also, the viability at 1 µM in the assay on SH-SY5Y [2] amounted to 82.6%. For the same compound, the viability at 10 µM in the assay with SH-SY5Y [3] is 79.6%. The Activity in the assay on SH-SY5Y [4] is listed as 72.4%.

Regarding `O=C(NCCc1c[nH]c2ccccc12)[C@@H]1CCC2=Nc3ccccc3CN21`, the viability at 0.1 µM in the assay on SH-SY5Y [1] was found to be 66.2%. Besides, the viability at 1 µM in the assay on SH-SY5Y [2] is 72%. In addition, in the assay on SH-SY5Y [3], the viability at 10 µM was 80.9%. The Activity in the assay with SH-SY5Y [4] worked out at 78.2%.

With `O=C(Nc1ccc(O)cc1)[C@@H]1CCC2=Nc3ccc(Br)cc3CN21`, the viability at 0.1 µM in the assay with SH-SY5Y [1] was 62.9%. Further, the viability at 1 µM in the assay with SH-SY5Y [2] was determined as 66.2%. In addition, the viability at 10 µM with SH-SY5Y [3] amounted to 68%. The Activity with SH-SY5Y [4] is recorded as 68.4%.

For the compound `COc1ccc(NC(=O)[C@@H]2CCC3=Nc4ccccc4CN32)cc1`, in the assay with SH-SY5Y [1], the viability at 0.1 µM worked out at 64.7%. Moreover, in the assay on SH-SY5Y [2], the viability at 1 µM was determined as 72.7%. Besides, the viability at 10 µM with SH-SY5Y [3] is 66.4%. For the same compound, the Activity in the assay on SH-SY5Y [4] is on record as 48.4%.

On to `O=C(NCc1ccc(F)cc1)[C@H]1CCC2=Nc3ccccc3CN21`, for which the viability at 0.1 µM in the assay on SH-SY5Y [1] was found to be 71.1%. The viability at 1 µM in the assay with SH-SY5Y [2] was 74.7%. For the same compound, the viability at 10 µM in the assay with SH-SY5Y [3] was found to be 72.9%. Further, the Activity in the assay with SH-SY5Y [4] was determined as 63.9%.

For the compound `O=C(NCc1ccccc1)[C@@H]1CCC2=Nc3ccccc3CN21`, the viability at 0.1 µM in the assay on SH-SY5Y [1] worked out at 68.4%. Moreover, in the assay on SH-SY5Y [2], the viability at 1 µM is 71.6%. In the assay on SH-SY5Y [3], the viability at 10 µM came out at 70.5%. The Activity with SH-SY5Y [4] worked out at 64.4%.

Take `O=C(Nc1ccc(O)cc1)[C@H]1CCC2=Nc3ccc(Br)cc3CN21`: the viability at 0.1 µM in the assay on SH-SY5Y [1] turned out to be 61.7%. Besides, the viability at 1 µM in the assay with SH-SY5Y [2] was 71.3%. The viability at 10 µM in the assay on SH-SY5Y [3] worked out at 68.3%. Further, the Activity in the assay with SH-SY5Y [4] is recorded as 66%.

As to `O=C(Nc1ccc(O)cc1)[C@@H]1CCC2=Nc3ccccc3CN21`, in the assay with SH-SY5Y [1], the viability at 0.1 µM worked out at 67.7%. In addition, in the assay on SH-SY5Y [2], the viability at 1 µM came to 68.3%. Further, the viability at 10 µM in the assay on SH-SY5Y [3] came out at 70.1%. Also, in the assay with SH-SY5Y [4], the Activity amounted to 70.9%.

For `O=C(NCCc1ccc(F)cc1)[C@@H]1CCC2=Nc3ccccc3CN21`, the viability at 0.1 µM with SH-SY5Y [1] turned out to be 71.4%. In addition, the viability at 1 µM in the assay with SH-SY5Y [2] stood at 75.4%. Further, the viability at 10 µM in the assay with SH-SY5Y [3] was determined as 68.1%. In the assay with SH-SY5Y [4], the Activity came to 33.5%.

Turning to `O=C(NCCCc1ccccc1)[C@@H]1CCC2=Nc3ccccc3CN21`, the viability at 0.1 µM in the assay with SH-SY5Y [1] amounted to 67.2%. Further, in the assay on SH-SY5Y [2], the viability at 1 µM is 71.2%. In the assay on SH-SY5Y [3], the viability at 10 µM was determined as 63.4%. Moreover, in the assay on SH-SY5Y [4], the Activity was determined as 30.3%.

Take `O=C(NCc1ccc(O)cc1)[C@H]1CCC2=Nc3ccc(Br)cc3CN21`: the viability at 0.1 µM in the assay with SH-SY5Y [1] was 75%. Besides, in the assay on SH-SY5Y [2], the viability at 1 µM was 78%. Besides, the viability at 10 µM in the assay on SH-SY5Y [3] worked out at 67.4%. In addition, the Activity with SH-SY5Y [4] amounted to 56.9%.

Take `N=C(NCc1ccccc1)[C@@H]1CCC2=Nc3ccccc3CN21`: in the assay with SH-SY5Y [1], the viability at 0.1 µM was found to be 61.6%. For the same compound, the viability at 1 µM in the assay on SH-SY5Y [2] was determined as 68.6%. Also, the viability at 10 µM in the assay with SH-SY5Y [3] is 68.8%. In addition, the Activity in the assay on SH-SY5Y [4] worked out at 66.4%.

Turning to `O=C(NCc1ccc(O)cc1)[C@@H]1CCC2=Nc3ccccc3CN21`, the viability at 0.1 µM in the assay with SH-SY5Y [1] worked out at 67.6%. Besides, the viability at 1 µM in the assay on SH-SY5Y [2] came out at 72%. Moreover, the viability at 10 µM with SH-SY5Y [3] was determined as 73.8%. Also, the Activity with SH-SY5Y [4] came out at 70.3%.

Regarding `O=C(NCCc1ccc(O)cc1)[C@@H]1CCC2=Nc3ccccc3CN21`, the viability at 0.1 µM in the assay on SH-SY5Y [1] is 67.7%. In addition, the viability at 1 µM with SH-SY5Y [2] was 78.1%. Moreover, in the assay on SH-SY5Y [3], the viability at 10 µM came to 81.4%. In addition, the Activity with SH-SY5Y [4] is reported as 67.8%.

Values taken from ChEMBL document CHEMBL4229377, “Design, synthesis and bioevaluation of 1,2,3,9-tetrahydropyrrolo[2,1-b]quinazoline-1-carboxylic acid derivatives as potent neuroprotective agents” (Eur J Med Chem, 2018).
